# Laboratory results reported in patent publication US12655437B2, “Compositions and methods for modulating the gastrointestinal tract using bile salt hydrolases” (North Carolina State University, priority 2019, dated 2026).
# How the values were obtained:
# [1] = system: C. difficile; settings: cited from earlier work
# [2] = system: C. difficile; test: Growth of C. difficile anaerobically in BHIS medium supplemented with bile acids and purified BSH; assay type: cell-based, Clostridioides difficile; settings: BHIS media supplemented with the bile acid alone
# Method: FIGS. 22A-22C: BSH specificity can leveraged to inhibit Clostridioides difficile in a conjugated bile acid substrate-dependent manner. (A) Recombinantly expressed and purified L. johnsonii BSHs were assayed for deconjugation with GCDCA and TCDCA. Specific activities for each BSH were determined by quantifying the rate of amino acid release by Ninhydrin assay. (B, C) Growth of C. difficile anaerobically in BHIS medium supplemented with GCDCA, TCDCA, or CDCA in combination with purified LjoBSHa or LjoBSHc.
# As shown in FIGS. 9-11, recombinant BHSs were overexpressed and purified to homogeneity, and experiments were conducted to evaluate their activity. Two recombinant BSH enzymes were used for this assay. […] TCDCA was chosen as a conjugated bile acid to be used in the growth assays due to C. difficile's sensitivity to the CDCA that is released from BSH activity. […] A high dosage of LjoBSHa is needed to overcome its catalytic deficiency (FIG. 9).
# TCDCA was chosen as a conjugated bile acid to be used in this growth (FIGS. 22B-22C) assay due to C. difficile's sensitivity to the CDCA that is released from BSH activity. […] A high dosage of LjoBSHa is needed to overcome its catalytic deficiency.
# [3] = system: L. acidophilus ΔbshAB; test: Growth of L. acidophilus bsh mutants in MRS media supplemented with bile acids; assay type: cell-based, Lactobacillus acidophilus
# Method: FIG. 12: L. acidophilus bshA and bshB contribute to bile acid detoxification in a substrate dependent manner. Growth of BSH mutants in the presence of bile acids. To evaluate the role of BSH activity during L. acidophilus growth, single and double BSH mutants were grown in MRS media supplemented with bile acids and growth was measured by OD600 nm.
# FIGS. 13A-13G: L. acidophilus bshA and bshB contribute to bile acid detoxification in a substrate and concentration dependent manner.
# FIGS. 12-14 include representative results of experiments conducted to evaluate the role of BSH activity during L. acidophilus growth. […] The L. acidophilus strains with deletion in bshA, bshB, and bshAB were tested in plate assays and growth curves were determined. The ΔbshA, ΔbshB, and ΔbshAB L. acidophilus and L. gasseri strains were grown in the presence of conjugated bile acids to test BSH contributions to bile acid detoxification. FIG. 12 provides growth curves of L. acidophilus mutants grown in a variety of bile acid concentrations. As shown, single and double BSH mutants (ΔbshA and ΔbshB) were grown in MRS media supplemented with bile acids.
# Error bars represent s.d. from n=4 independent experiments. Dashed lined denotes the approximate starting CFUs/mL at 0 h. Exogenous recombinant LaBSHa and LaBSHb (LaBSHab) or LgBSHa and LgBSHb (LgBSHab) were supplemented to cultures in equimolar amounts to L. acidophilus ΔbshAB or L. gasseri ΔbshAB growths to functionally complement ΔbshAB strains.
# [4] = system: L. gasseri ΔbshAB; test: Growth of L. gasseri bsh mutants in MRS media supplemented with bile acids; assay type: cell-based, Lactobacillus gasseri
# Method: Error bars represent standard deviation (s.d.) from n=4 independent experiments. Dashed lined denotes the approximate starting CFUs/mL at 0 h. Exogenous recombinant LaBSHa and LaBSHb (LaBSHab) or LgBSHa and LgBSHb (LgBSHab) were supplemented to cultures in equimolar amounts to (A) L. acidophilus ΔbshAB or (B) L. gasseri ΔbshAB growths to functionally complement ΔbshAB strains.
# The L. acidophilus strains with deletion in bshA, bshB, and bshAB were tested in plate assays and growth curves were determined. The ΔbshA, ΔbshB, and ΔbshAB L. acidophilus and L. gasseri strains were grown in the presence of conjugated bile acids to test BSH contributions to bile acid detoxification. FIG. 12 provides growth curves of L. acidophilus mutants grown in a variety of bile acid concentrations.
SMILES,C. difficile growth [2],growth of L. acidophilus ΔbshAB ([3]; 5 mM bile acid in MRS),growth of L. acidophilus ΔbshAB ([3]; 2.5 mM bile acid in MRS),further results
"C[C@H](CCC(=O)O)[C@H]1CC[C@H]2[C@@H]3[C@H](O)C[C@@H]4C[C@H](O)CC[C@]4(C)[C@H]3CC[C@]12C [CDCA, chendeoxycholate]",complete inhibition,,,C. difficile spore germination [1]: inhibits; C. difficile vegetative cells [1]: kills
"C[C@H](CCC(=O)NCC(=O)O)[C@H]1CC[C@H]2[C@@H]3[C@H](O)C[C@@H]4C[C@H](O)CC[C@]4(C)[C@H]3C[C@H](O)[C@]12C [GCA, glycocholate]",,less inhibited,,growth of L. gasseri ΔbshAB ([4]; 5 mM bile acid in MRS): significantly less inhibited
"C[C@H](CCC(=O)NCC(=O)O)[C@H]1CC[C@H]2[C@@H]3[C@H](O)C[C@@H]4C[C@H](O)CC[C@]4(C)[C@H]3CC[C@]12C [GCDCA, glycochendeoxycholate]",,,significantly inhibited,growth of L. gasseri ΔbshAB ([4]; 2.5 mM bile acid in MRS): significantly inhibited
"C[C@H](CCC(=O)NCC(=O)O)[C@H]1CC[C@H]2[C@@H]3CC[C@@H]4C[C@H](O)CC[C@]4(C)[C@H]3C[C@H](O)[C@]12C [GDCA, glycodeoxycholate]",,,significantly inhibited,growth of L. gasseri ΔbshAB ([4]; 1.25 mM bile acid in MRS): significantly inhibited
"C[C@H](CCC(=O)NCCS(=O)(=O)O)[C@H]1CC[C@H]2[C@@H]3[C@H](O)C[C@@H]4C[C@H](O)CC[C@]4(C)[C@H]3CC[C@]12C [TCDCA, taurochendeoxycholate]",no inhibition of growth,less inhibited,,effect on C. difficile ([1]; bile acid alone): does not affect C. difficile
"C[C@H](CCC(=O)NCCS(=O)(=O)O)[C@H]1CC[C@H]2[C@@H]3CC[C@@H]4C[C@H](O)CC[C@]4(C)[C@H]3C[C@H](O)[C@]12C [TDCA, taurodeoxycholate]",,significantly inhibited,,
